pIC50: −log10 of the molar value. Square brackets hold non-standard residues; d marks the D form. Peptide text beside a SMILES is read from it. * marks the point of attachment. Sta = CC(C)C[C@H](N)[C@@H](O)CC(=O)O; NHCH2(2-pyridyl) = c1ccc(CN*)nc1; αMeP = C[C@@]1(C(=O)O)CCCN1; Boc = CC(C)(C)OC(=O)*
Legend:
[1] = target: T1, Renin (Homo sapiens, UniProt P00797); assay: In vitro inhibition against human plasma renin.; assay type: cell-free
T1 sequence (P00797 whole entry): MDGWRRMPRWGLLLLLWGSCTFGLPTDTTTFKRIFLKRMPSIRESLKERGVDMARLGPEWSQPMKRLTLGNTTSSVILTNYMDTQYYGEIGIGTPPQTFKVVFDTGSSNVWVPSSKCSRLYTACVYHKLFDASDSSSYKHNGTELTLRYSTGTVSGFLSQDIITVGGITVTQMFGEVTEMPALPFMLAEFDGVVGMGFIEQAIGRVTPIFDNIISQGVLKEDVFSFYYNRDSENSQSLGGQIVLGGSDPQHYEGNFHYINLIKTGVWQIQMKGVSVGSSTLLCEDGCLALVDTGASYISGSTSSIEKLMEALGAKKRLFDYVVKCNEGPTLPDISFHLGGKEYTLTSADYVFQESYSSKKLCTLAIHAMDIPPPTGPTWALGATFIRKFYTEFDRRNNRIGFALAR

[2] = target: Renin (Sus scrofa); assay: In vitro inhibition against hog renin.

pIC50 [1]	pIC50 [2]	SMILES
7.37		CC[C@H](C)[C@H](NC(=O)[C@@H](NC[C@H](CC(C)C)NC(=O)[C@H](Cc1c[nH]cn1)NC(=O)[C@H](Cc1ccccc1)NC(=O)[C@]1(C)CCCN1C(=O)OC(C)(C)C)C(C)C)C(=O)NCc1ccccn1
	7.40	CC[C@H](C)[C@H](NC(=O)[C@@H](NC[C@H](O)[C@H](CC(C)C)NC(=O)[C@H](Cc1c[nH]cn1)N(C)C(=O)[C@H](Cc1ccccc1)NC(=O)[C@@H]1CCCN1C(=O)OC(C)(C)C)C(C)C)C(=O)NCc1ccccn1
7.44		CC[C@H](C)[C@H](NC(=O)C[C@H](O)[C@H](CC(C)C)NC(=O)[C@H](Cc1ccccc1)NC(=O)[C@H](Cc1ccccc1)NC(=O)[C@]1(C)CCCN1C(=O)OC(C)(C)C)C(=O)NCc1ccccn1 (Boc-[αMeP]FF[Sta]I-{NHCH2(2-pyridyl)})
8.46		CC[C@H](C)[C@H](NC(=O)C[C@H](O)[C@H](CC(C)C)NC(=O)[C@H](Cc1c[nH]cn1)NC(=O)[C@H](Cc1ccccc1)NC(=O)[C@]1(C)CCCN1C(=O)OC(C)(C)C)C(=O)NCc1ccccn1 (Boc-[αMeP]FH[Sta]I-{NHCH2(2-pyridyl)})
